In one assay the test system is Rat PMNL. Kind of assay: Measurement of intracellular calcium in fMLP-stimulated PMNL preloaded with Fura-2. The assay is classed as cell-based. The following applies: fMLP stimulus, preincubation with compound 15 minutes at 37°C, concentrations in figure 1. The method, then: Rat PMNL were obtained from exudates resulting from peritoneal injection of 6 mL of 8% sodium caseinate. Eighteen hours after injection rats were killed by carbon dioxide inhalation and the peritoneal cavity lavaged with Hank's balanced salt solution (HBSS). After concentration of the PMNL by centrifugation, contaminating erythrocytes were removed by hypotonic lysis. The PMNL were then washed twice by centrifugation (400 x g for 10 minutes) and resuspended in HBSS. Cell viability was greater than 90% by Trypan Blue exclusion and greater than 90% of the cells were PMNL by Wright-Giemsa stain.
Intracellular calcium levels were obtained using Fura-2 as fluorescent indicator (Grynkiewicz et al., 1985). Fura-2 was loaded into PMNL as the acetoxymethyl ester (Fura-2/AM) using the method of Korchak et al., (1988). Specifically, 1 X 10⁸ PMNL/mL were incubated in HBSS with 10 µM Fura-2/AM for 10 minutes at 37°C. The cells suspension was then diluted ten fold with HBSS and further incubated for another 20 minutes. The cells were then centrifuged (400 x g for 8 minutes at 25°C) and the PMNL (1 x 10⁷ cells/mL) resuspended in HBSS containing 1% bovine serum albumin. Cells were stored at room temperature and used within 3 hours.
Intracellular calcium level determinations were made using a dual wavelength spectrofluorometer (Photon Technology International, New Brunswick, NJ). Two mL of PMNL suspension (1 x 10⁷ cells/mL) were stirred magnetically at 37°C. Cells were preincubated with the compounds for 15 minutes at 37°C prior to activation. Where compounds were dissolved in DMSO and added directly, the DMSO never exceeded 0.3% in the final cell suspension. Total change in volume with addition of compounds or vehicle and stimuli never exceeded 3%. Intracellular calcium concentrations were calibrated by setting a maximum calcium level in the cells with the addition of 7 µM ionomycin to PMNL in HBSS containing 1% BSA. This was followed by treatment with 20 mM EGTA for 1 hour to obtain a minimum calcium level. […]

Assay [1] has as its system Mustard Oil-Induced Mouse Ear Edema. Kind of assay: Mustard oil-induced mouse ear edema. The assay is classed as in vivo, Charles River male CD-1 mice. The following applies: ear weight increase after 30 minutes. How it is done: Charles River male CD-1 mice weighing 30-60 grams were divided into randomized groups. They were dosed i.p. for 30 minutes prior or orally 1 hour prior to application of 20 µl of mustard oil (10% isothiocyanate in acetone) to the right ear. After 30 minutes the mice were sacrificed and an 8 millimeter diameter circular punch biopsy of each ear was obtained and weighed. The difference between the left (control) and right (treated) ear weights were expressed as percent increase.

For assay [2], the system named is Carrageenin-Induced Rat Paw Edema. Put plainly: Carrageenin-induced rat paw edema. It is filed as in vivo, Charles River male Sprague-Dawley rats. The following applies: one hour prior to paw injection, paw volume three hours after carrageenin, dose not given. How it is done:
Charles River male Sprague-Dawley rats weighing 90 to 100 grams were used. Inflammation of the left hind paw was induced by a 1% carrageenin solution (0.05 cc), injected into the plantar surface of the paw. The contralateral paw was injected with an equal volume of saline. Drugs were administered orally or i.p. (1 cc/100 grams) one hour prior to paw injection. Three hours following the carrageenin injection the difference in volume of the control and inflamed paw was measured. Each paw was immersed in a well of mercury and the volume of mercury displaced was recorded. Paws were uniformly dipped into the mercury up to the beginning of the hairline. A venous pressure transducer, coupled to a chart recorder, was employed to measure the small volumes of mercury displaced. Each group measurement consists of the average of four rats, each with three separate measurements.

Where [3] appears, read: 10 mg/Kg i.p., 30 minutes prior to mustard oil.
The mark [4] stands for this setting: 10 mg/Kg oral, 1 hour prior to mustard oil.
Setting [5] is: 30 mg/Kg i.p., 30 minutes prior to mustard oil.
The mark [6] stands for this setting: 30 mg/Kg oral, 1 hour prior to mustard oil.
Where [7] appears, read: 100 mg/Kg i.p., 30 minutes prior to mustard oil.
[8] abbreviates: 100 mg/Kg oral, 1 hour prior to mustard oil.

The source of these data is patent publication EP0476645B1, “Calcium uptake inhibitors” (MERRELL DOW PHARMACEUTICALS INC., priority 1990, dated 1992).

Turning to `O=C(C#Cc1ccncc1)c1ccccc1` [MDL 101,098, 1-Phenyl-3-(4-pyridinyl)-2-propyne-1-one], the “suppression of the second wave of intracellular calcium changes” value in the assay with Rat PMNL is reported as “selective concentration-dependent suppression”. The “%Inhibition” value in assay [1] (setting [3]) came to 38.6 ± 13.1%; in assay [1] (setting [4]) it was 38.5 ± 34.9%; in assay [1] (setting [5]), 56.8 ± 6.4%; in assay [1] (setting [6]), 6.4 ± 27.7%; in assay [1] (setting [7]), 68.2 ± 5.8%; in assay [1] (setting [8]), 43.9 ± 15.6%. For the same compound, the “%Inhibition” value in assay [2] (i.p.) is 64.8%; in assay [2] (p.o.), 42.4%.

As for `CN(C)c1ccc(C(=O)C#Cc2ccncc2)cc1` [MDL 102,175, 1-(4-Dimethylaminophenyl)-3-(4-pyridinyl)-2-propyne-1-one], the “suppression of the second wave of intracellular calcium changes” value in the assay on Rat PMNL is “selective concentration-dependent suppression”. Also, the “%Inhibition” value in assay [1] (setting [3]) amounted to 38.6 ± 13.1%; in assay [1] (setting [4]) it was 38.5 ± 34.9%; in assay [1] (setting [5]), 56.8 ± 6.4%; in assay [1] (setting [6]), 6.4 ± 27.7%; in assay [1] (setting [7]), 68.2 ± 5.8%; in assay [1] (setting [8]), 43.9 ± 15.6%. Besides, the “%Inhibition” value in assay [2] (i.p.) is 73.2%; in assay [2] (p.o.), 19.8%.
